Measured values from PMC6008489 (Bioorganic & Medicinal Chemistry, 2018).
Structures can show the parent of a compound that is named as a salt.

Tests used:
MPS1 [1] = target: T1, MPS1 (Homo sapiens, UniProt P33981); type: biochemical; conditions: for Ki: calculated from mean IC50 using the Cheng-Prusoff equation; for MPS1 ligand efficiency (LE): from Ki
T1 sequence (P33981 1-857): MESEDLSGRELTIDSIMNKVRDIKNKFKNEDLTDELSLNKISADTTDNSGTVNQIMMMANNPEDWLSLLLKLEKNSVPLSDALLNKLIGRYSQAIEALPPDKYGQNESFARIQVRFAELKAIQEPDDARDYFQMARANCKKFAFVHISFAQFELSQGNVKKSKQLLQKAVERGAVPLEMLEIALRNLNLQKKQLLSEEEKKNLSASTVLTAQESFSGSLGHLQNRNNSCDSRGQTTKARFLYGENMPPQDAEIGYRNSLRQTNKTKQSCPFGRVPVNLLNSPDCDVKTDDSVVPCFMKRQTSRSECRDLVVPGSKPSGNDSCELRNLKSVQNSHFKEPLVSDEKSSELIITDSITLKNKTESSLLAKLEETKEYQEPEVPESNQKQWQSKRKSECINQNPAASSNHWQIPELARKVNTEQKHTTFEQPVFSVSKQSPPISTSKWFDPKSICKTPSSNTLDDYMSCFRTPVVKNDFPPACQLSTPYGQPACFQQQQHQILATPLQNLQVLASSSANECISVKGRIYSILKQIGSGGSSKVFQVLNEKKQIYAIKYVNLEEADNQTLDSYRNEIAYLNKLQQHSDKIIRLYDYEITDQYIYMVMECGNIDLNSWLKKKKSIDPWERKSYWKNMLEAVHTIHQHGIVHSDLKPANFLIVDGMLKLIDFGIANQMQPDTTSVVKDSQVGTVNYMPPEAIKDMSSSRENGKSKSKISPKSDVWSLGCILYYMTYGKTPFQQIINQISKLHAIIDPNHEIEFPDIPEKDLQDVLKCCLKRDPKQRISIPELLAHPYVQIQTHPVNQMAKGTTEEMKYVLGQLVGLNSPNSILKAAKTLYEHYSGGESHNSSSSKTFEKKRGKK
Method: (§1) IC50 values were obtained for an expanded version of the fragment library using the previously described mobility shift assay.[44] Subsequently, Ki values were estimated from IC50 values to allow better comparison of the activity against targets which were measured at different substrate concentrations (Supplementary data Table 1).
(§2) IC50 values for MPS1, Aurora A and Aurora B inhibition were determined as previously described,[44] and Ki values were estimated from the mean IC50 values using the Cheng-Prusoff equation.[48]
(§3) Kinase [ATP] (M) [Enzyme] (nM) [Peptide Substrate] (M) MgCl2 (mM)
(§4) For all compounds, IC50 values for MPS1, Aurora A, and Aurora B were determined
(§5) using MPS1 and Aurora A/B mobility shift assays as described previously.1 IC50
(§6) values were calculated from a four-parameter logistic fit of percentage inhibition
(§7) versus concentration (at 8 compound concentrations) using GraphPad Prism 5
(§8) (GraphPad Software, Inc., CA, USA). Mean IC50 values were determined from two
(§9) independent measurements each carried out in duplicate. Ki values were estimated
(§10) from the mean IC50 values using the Cheng-Prusoff equation.

Aurora B = Aurora B (Homo sapiens, UniProt Q96GD4); type: biochemical; conditions: for Ki: calculated from mean IC50 using the Cheng-Prusoff equation, read-out: AurB Ki; for AurB ligand efficiency (LE): from Ki;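 on all read-outs here: aurora B inhibition measured in a mobility shift assay, underlying mean IC50 taken from two independent duplicate runs at 8 compound concentrations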
Method: as §1, §2, §3, §4, §5, §6, §7, §8, §9, §10

Aurora A = target: T2, Aurora A (Homo sapiens, UniProt O14965); type: biochemical; conditions: for Ki: calculated from mean IC50 using the Cheng-Prusoff equation, read-out: AurA Ki; for AurA ligand efficiency (LE): from Ki
T2 sequence (O14965 1-403): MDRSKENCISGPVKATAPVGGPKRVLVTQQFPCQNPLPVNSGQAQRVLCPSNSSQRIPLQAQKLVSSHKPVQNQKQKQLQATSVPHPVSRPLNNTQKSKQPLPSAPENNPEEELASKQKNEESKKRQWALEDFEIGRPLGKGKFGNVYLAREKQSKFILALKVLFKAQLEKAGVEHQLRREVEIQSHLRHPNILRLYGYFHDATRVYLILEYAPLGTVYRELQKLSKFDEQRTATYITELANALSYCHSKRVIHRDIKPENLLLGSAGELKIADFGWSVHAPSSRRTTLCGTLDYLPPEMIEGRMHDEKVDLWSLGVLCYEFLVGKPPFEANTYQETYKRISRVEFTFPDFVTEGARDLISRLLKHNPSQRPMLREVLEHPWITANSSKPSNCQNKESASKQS
Method: as §1, §2, §3, §4, §5, §6, §7, §8, §9, §10

AKT2 = target: T3, AKT2 (Homo sapiens, UniProt P31751); assay: 26-kinase panel mobility shift assay, single concentration; type: biochemical; conditions: read-out: % Inhibition AKT2
T3 construct: purchased Perkin Elmer ProfilerPro assay kit 1
Method: (§11) In order to test the biochemical activity of our fragment library, a panel of 26 structurally diverse protein kinases was used.
(§12) Screening of 26 kinases using a mobility shift assay
(§13) A mobility shift assay to determine kinase inhibition was carried out using a
(§14) modified version of the ProfilerPro assay kit 1 (Perkin Elmer, Coventry, UK)
(§15) including MPS1 and Aurora B. Each kit contained an enzyme plate, a substrate
(§16) plate, reconstitution buffer, 1 M DTT, protease inhibitor cocktail and termination
(§17) buffer. Test compounds were added as a solution in DMSO.
(§18) peptide phosphorylation assay was carried out as per the manufacturer’s
(§19) instructions. The electrophoretic separation and analysis of the phosphorylated
(§20) and non-phosphorylated peptides was carried out on a 4-sipper chip using a
(§21) LabChip EZReader II (Perkin Elmer). Results were expressed as % inhibition of
(§22) peptide phosphorylation relative to control wells for 0 % (no test compound) and
(§23) 100 % (no ATP) inhibition. The percentage inhibition was calculated using the
(§24) % Inhibition = [1 - (% Conversion Sample / % Conversion 0% Inhibition Control)] x 100

MPS1 [2] = target: T1, MPS1; assay: biochemical; conditions: read-out: % Inhibition MPS1
Method: as §11, §12, §13, §14, §15, §16, §17, §18, §19, §20, §21, §22, §23, §24

INSR = target: T4, INSR (Homo sapiens, UniProt P06213); assay: 26-kinase panel mobility shift assay, single concentration; type: biochemical; conditions: read-out: % Inhibition INSR
T4 construct: purchased Perkin Elmer (ProfilerPro assay kit 1)
Method: as §11, §12, §13, §14, §15, §16, §17, §18, §19, §20, §21, §22, §23, §24

SRC = target: T5, SRC (Homo sapiens, UniProt P12931); assay: as above; type: biochemical; conditions: read-out: % Inhibition SRC
T5 construct: purchased Perkin Elmer (ProfilerPro assay kit 1)
T5 sequence (P12931 whole entry): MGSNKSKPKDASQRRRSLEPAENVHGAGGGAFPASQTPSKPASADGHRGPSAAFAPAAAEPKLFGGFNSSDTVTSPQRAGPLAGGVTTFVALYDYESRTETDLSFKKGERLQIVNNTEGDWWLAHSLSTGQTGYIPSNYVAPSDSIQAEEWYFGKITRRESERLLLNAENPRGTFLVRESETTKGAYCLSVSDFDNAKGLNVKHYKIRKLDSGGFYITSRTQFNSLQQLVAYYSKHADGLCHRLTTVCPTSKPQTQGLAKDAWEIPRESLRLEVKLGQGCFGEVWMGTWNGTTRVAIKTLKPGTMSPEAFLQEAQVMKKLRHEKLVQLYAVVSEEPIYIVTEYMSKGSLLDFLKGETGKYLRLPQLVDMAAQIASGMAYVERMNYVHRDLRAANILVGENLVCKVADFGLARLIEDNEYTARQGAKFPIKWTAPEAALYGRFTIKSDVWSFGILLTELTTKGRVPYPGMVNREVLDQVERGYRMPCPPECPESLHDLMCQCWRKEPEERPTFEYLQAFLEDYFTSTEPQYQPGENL
Method: as §11, §12, §13, §14, §15, §16, §17, §18, §19, §20, §21, §22, §23, §24

Chain of Aurora B (Q96GD4 whole entry): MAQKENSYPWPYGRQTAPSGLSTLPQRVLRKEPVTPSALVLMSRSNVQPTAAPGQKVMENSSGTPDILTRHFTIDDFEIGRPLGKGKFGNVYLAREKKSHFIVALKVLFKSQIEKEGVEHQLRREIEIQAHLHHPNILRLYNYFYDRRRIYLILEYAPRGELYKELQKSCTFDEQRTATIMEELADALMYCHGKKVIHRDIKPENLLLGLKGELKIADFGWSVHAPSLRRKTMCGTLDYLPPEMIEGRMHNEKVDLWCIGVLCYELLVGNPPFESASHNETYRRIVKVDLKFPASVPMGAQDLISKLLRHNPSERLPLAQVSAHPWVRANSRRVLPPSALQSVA
T3 sequence (P31751 whole entry): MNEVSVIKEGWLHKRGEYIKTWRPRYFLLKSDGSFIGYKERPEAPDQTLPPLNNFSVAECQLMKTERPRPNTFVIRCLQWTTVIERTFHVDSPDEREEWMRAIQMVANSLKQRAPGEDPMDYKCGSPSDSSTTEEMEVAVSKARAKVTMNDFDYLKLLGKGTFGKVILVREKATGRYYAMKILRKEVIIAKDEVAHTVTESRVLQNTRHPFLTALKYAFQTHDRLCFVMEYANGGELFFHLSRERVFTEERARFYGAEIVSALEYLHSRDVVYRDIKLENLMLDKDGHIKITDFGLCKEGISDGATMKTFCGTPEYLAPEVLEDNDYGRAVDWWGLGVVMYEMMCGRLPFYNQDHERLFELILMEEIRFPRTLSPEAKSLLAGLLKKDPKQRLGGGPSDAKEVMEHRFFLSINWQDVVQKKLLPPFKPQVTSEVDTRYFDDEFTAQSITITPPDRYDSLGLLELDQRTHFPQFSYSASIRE
T4 sequence (P06213 28-1382): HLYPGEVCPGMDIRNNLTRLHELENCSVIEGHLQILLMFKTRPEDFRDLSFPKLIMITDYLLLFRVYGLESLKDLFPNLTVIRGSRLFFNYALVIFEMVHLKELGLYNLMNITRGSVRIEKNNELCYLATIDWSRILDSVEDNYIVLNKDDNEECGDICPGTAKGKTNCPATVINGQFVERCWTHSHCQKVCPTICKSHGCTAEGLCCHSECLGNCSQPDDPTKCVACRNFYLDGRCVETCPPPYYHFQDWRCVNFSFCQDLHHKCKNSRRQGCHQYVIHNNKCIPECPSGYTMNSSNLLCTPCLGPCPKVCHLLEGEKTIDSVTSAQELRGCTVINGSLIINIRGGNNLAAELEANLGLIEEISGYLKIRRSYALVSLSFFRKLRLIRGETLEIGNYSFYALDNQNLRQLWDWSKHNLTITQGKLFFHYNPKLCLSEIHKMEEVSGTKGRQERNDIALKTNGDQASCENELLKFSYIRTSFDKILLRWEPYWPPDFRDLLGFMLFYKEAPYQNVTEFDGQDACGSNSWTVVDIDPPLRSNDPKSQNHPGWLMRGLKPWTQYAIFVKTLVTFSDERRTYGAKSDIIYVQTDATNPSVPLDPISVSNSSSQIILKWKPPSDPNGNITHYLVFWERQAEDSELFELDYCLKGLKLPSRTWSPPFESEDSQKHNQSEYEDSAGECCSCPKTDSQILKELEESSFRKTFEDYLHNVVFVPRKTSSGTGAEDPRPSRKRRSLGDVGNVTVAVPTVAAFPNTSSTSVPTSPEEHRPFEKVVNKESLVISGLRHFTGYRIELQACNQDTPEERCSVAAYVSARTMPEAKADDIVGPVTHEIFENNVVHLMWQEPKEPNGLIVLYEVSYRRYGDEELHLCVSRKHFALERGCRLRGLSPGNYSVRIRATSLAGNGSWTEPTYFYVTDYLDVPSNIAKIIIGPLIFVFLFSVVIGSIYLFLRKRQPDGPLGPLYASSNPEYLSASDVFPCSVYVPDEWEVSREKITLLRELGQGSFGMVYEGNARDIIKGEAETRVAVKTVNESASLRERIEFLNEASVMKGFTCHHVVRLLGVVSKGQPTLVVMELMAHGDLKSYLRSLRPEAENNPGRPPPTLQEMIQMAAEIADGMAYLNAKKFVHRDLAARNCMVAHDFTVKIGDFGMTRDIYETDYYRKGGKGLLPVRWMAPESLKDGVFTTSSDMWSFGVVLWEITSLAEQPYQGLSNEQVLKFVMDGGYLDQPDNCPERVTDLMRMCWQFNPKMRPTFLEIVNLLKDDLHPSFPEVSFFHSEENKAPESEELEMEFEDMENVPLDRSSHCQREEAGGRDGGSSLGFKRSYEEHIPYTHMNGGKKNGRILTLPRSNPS

SMILES	melting point	Ki (MPS1 [1])	MPS1 ligand efficiency (LE) (MPS1 [1])	Ki (Aurora B)	AurB ligand efficiency (LE) (Aurora B)	Ki (Aurora A)	AurA ligand efficiency (LE) (Aurora A)	inhibition at 100 µM (AKT2)	inhibition at 100 µM (MPS1 [2])	inhibition at 100 µM (INSR)	inhibition at 100 µM (SRC)
Nc1cc(-c2cncnc2)c[nH]c1=O (as salt: sodium) [Compound 10, 3-Amino-5-(pyrimidin-5-yl)pyridin-2(1H)-one]	240 °C	–	–	–	–	–	–	–	–	–	–
Nc1cc(-c2ccccc2)cnc1O [Compound 9, 3-Amino-5-phenyl-pyridin-2-one]	–	128 µM	0.38	70.3 µM	0.40	66.9 µM	0.41	–	–	–	–
Nc1cc(-c2cncnc2)c[nH]c1=O [Compound 10, 3-Amino-5-(pyrimidin-5-yl)pyridin-2(1H)-one]	–	269 µM	0.35	18.7 µM	0.46	89.6 µM	0.39	–	–	–	–
Nc1cc(-c2cccnc2)c[nH]c1=O [Compound 11]	–	98.1 µM	0.39	97.2 µM	0.39	125 µM	0.38	–	–	–	–
Cc1[nH]c(=O)c(C#N)cc1-c1ccncc1 [Compound 13, Milrinone, reference compound]	–	> 100 µM	–	> 100 µM	–	> 100 µM	–	–	–	–	–
Cc1[nH]c(=O)c(C(N)=O)cc1-c1ccncc1 [Compound 14]	–	> 100 µM	–	> 100 µM	–	> 100 µM	–	–	–	–	–
COc1cccc(C(=O)Nc2cc(-c3ccncc3)c[nH]c2=O)c1 [Compound 17, 3-Methoxy-N-(2-oxo-5-(pyridin-4-yl)-1,2-dihydropyridin-3-yl)benzamide]	287 °C	24.8 µM	–	–	–	–	–	50%	42%	21%	59%
COc1cc(OC)cc(C(=O)Nc2cc(-c3ccncc3)c[nH]c2=O)c1 [Compound 18, 3,5-Dimethoxy-N-(2-oxo-5-(pyridin-4-yl)-1,2-dihydropyridin-3-yl)benzamide]	–	30.1 µM	–	32.9 µM	–	> 100 µM	–	–	–	–	–
O=C(Nc1cc(-c2ccncc2)c[nH]c1=O)c1cccc(F)c1 [Compound 19, 3-Fluoro-N-(2-oxo-5-(pyridin-4-yl)-1,2-dihydropyridin-3-yl)benzamide]	292 °C	> 100 µM	–	> 100 µM	–	> 100 µM	–	–	–	–	–
O=C(Nc1cc(-c2ccncc2)c[nH]c1=O)c1cc(F)cc(F)c1 [Compound 20]	293 °C	–	–	–	–	–	–	–	–	–	–
O=c1[nH]cc(-c2ccncc2)cc1NS(=O)(=O)c1ccccc1 [Compound 21]	289 °C	> 100 µM	–	> 100 µM	–	> 100 µM	–	–	–	–	–
O=C(Nc1cc(-c2ccncc2)c[nH]c1=O)c1ccc(N2CCCCC2)cc1 [Compound 23]	284 °C	2.9 µM	0.27	7.4 µM	0.25	2.6 µM	0.27	–	–	–	–
